In ChEMBL document CHEMBL1201862, “PubChem BioAssay data set” (2004):
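Results reflect a 48-hour exposure of cells in 96-well plates to compound at five concentrations. GI50 marks 50% less growth.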 Active and inactive are the calls of the source. Cut-off read from the data, not from the text of the source: active = GI50 up to about 1.1 µM and inactive = higher.

Assays:
Test in all cases: NCI tumour cell line growth inhibition, 48 h
HCT-15 = system: HCT-15
IGROV-1 = system: IGROV-1
SF-268 = system: SF-268
UO-31 = system: UO-31
TK-10 = system: TK-10
RPMI-8226 = system: RPMI-8226
HT-29 = system: HT-29
UACC-62 = system: UACC-62
OVCAR-5 = system: OVCAR-5
SK-MEL-2 = system: SK-MEL-2
786-0 = system: 786-0
OVCAR-4 = system: OVCAR-4
SR = system: SR
RXF 393 = system: RXF 393
SK-MEL-5 = system: SK-MEL-5

Structure (SMILES) | GI50 (HCT-15) | GI50 (IGROV-1) | GI50 (SF-268) | GI50 (UO-31) | GI50 (TK-10) | GI50 (RPMI-8226) | GI50 (HT-29) | GI50 (UACC-62) | GI50 (OVCAR-5) | GI50 (SK-MEL-2) | GI50 (786-0) | GI50 (OVCAR-4) | GI50 (SR) | GI50 (RXF 393) | GI50 (SK-MEL-5)
O=C(CN1CCOCC1)Nc1nc(-c2ccc(Cl)cc2)cs1 | 29.4 µM | 45.2 µM (inactive) | 25.1 µM (inactive) | 20.3 µM (inactive) | 34.4 µM (inactive) | 13.6 µM (inactive) | 36.1 µM (inactive) | 20 µM (inactive) | 89.7 µM (inactive) | 26.5 µM (inactive) | 60.3 µM (inactive) | 25.7 µM (inactive) | – | – | –
NCCCCNc1ccc2c(=O)[nH][nH]c(=O)c2c1 | – | > 100 µM (inactive) | > 100 µM (inactive) | > 100 µM (inactive) | > 100 µM (inactive) | – | > 100 µM (inactive) | > 100 µM (inactive) | > 100 µM (inactive) | > 100 µM (inactive) | > 100 µM (inactive) | > 100 µM (inactive) | > 100 µM (inactive) | > 100 µM (inactive) | > 100 µM (inactive)
Cc1c(C(=O)/C=C/c2ccc([N+](=O)[O-])cc2)[n+]([O-])c2ccccc2[n+]1[O-] | – | 55.7 µM (inactive) | > 100 µM (inactive) | > 100 µM (inactive) | > 100 µM (inactive) | 33.6 µM (inactive) | 96.6 µM (inactive) | 41.7 µM (inactive) | > 100 µM (inactive) | – | 52.1 µM (inactive) | 24.8 µM (inactive) | 43 µM (inactive) | 29.1 µM (inactive) | –
CCCCCCCCCCCOc1ccc(C(=O)C(=O)c2ccc(OCCCCCCCCCCC)c(OCCCCCCCCCCC)c2)cc1OCCCCCCCCCCC | > 100 µM | > 100 µM (inactive) | > 100 µM (inactive) | > 100 µM (inactive) | > 100 µM (inactive) | > 100 µM (inactive) | > 100 µM (inactive) | > 100 µM (inactive) | > 100 µM (inactive) | > 100 µM (inactive) | > 100 µM (inactive) | > 100 µM (inactive) | – | – | > 100 µM (inactive)
C[C@]12Cc3conc3C(O)=C1CC[C@@H]1C2CC[C@@]2(C)C1CC[C@@H]2O (some centres undefined) | 5.65 µM | 26 µM (inactive) | 14.6 µM (inactive) | 15.3 µM (inactive) | 24.3 µM (inactive) | 1.93 µM (inactive) | 19.7 µM (inactive) | 4.99 µM (inactive) | 50.2 µM (inactive) | 0.634 µM (active) | 16.1 µM (inactive) | 31.6 µM (inactive) | – | 17.4 µM (inactive) | 10.5 µM (inactive)
O=C(O)C12C3C4C1C1C2C3C1(Br)C41OCCO1 (centres undefined) | – | > 100 µM (inactive) | > 100 µM (inactive) | > 100 µM (inactive) | > 100 µM (inactive) | > 100 µM (inactive) | > 100 µM (inactive) | – | > 100 µM (inactive) | > 100 µM (inactive) | > 100 µM (inactive) | – | – | > 100 µM (inactive) | > 100 µM (inactive)
CCN(CC)c1oc(N(CC)CC)c(C(=O)Nc2ccccn2)c(=O)c1C(C)=O | > 100 µM | > 100 µM (inactive) | 90.8 µM (inactive) | > 100 µM (inactive) | > 100 µM (inactive) | > 100 µM (inactive) | > 100 µM (inactive) | > 100 µM (inactive) | > 100 µM (inactive) | > 100 µM (inactive) | > 100 µM (inactive) | – | > 100 µM (inactive) | – | > 100 µM (inactive)
COc1cc(OC)c(/C=C2\N=C(C)N(Nc3nnc(NN4C(=O)/C(=C/c5c(OC)cc(OC)cc5OC)N=C4C)c4ccccc34)C2=O)c(OC)c1 | > 100 µM | > 100 µM (inactive) | > 100 µM (inactive) | – | – | > 100 µM (inactive) | > 100 µM (inactive) | > 100 µM (inactive) | > 100 µM (inactive) | – | > 100 µM (inactive) | > 100 µM (inactive) | > 100 µM (inactive) | > 100 µM (inactive) | > 100 µM (inactive)
Cc1c2cc[n+](C)cc2c(C)c2c1[nH]c1ccc(Oc3ccccc3)cc12 | 4.69 µM | 2.37 µM (inactive) | 1.03 µM (active) | 5.08 µM (inactive) | – | 2.64 µM (inactive) | 0.843 µM (active) | 1.43 µM (inactive) | 2.51 µM (inactive) | 0.832 µM (active) | 0.518 µM (active) | 2.56 µM (inactive) | – | – | 1.01 µM (active)
COc1ccc2nc(NC(=O)C(=O)C(C#N)c3ccc([N+](=O)[O-])cc3)sc2c1 (centres undefined) | > 100 µM | > 100 µM (inactive) | > 100 µM (inactive) | 11.2 µM (inactive) | > 100 µM (inactive) | 31.2 µM (inactive) | > 100 µM (inactive) | 46 µM (inactive) | > 100 µM (inactive) | > 100 µM (inactive) | > 100 µM (inactive) | > 100 µM (inactive) | – | > 100 µM (inactive) | > 100 µM (inactive)
Nc1ccc(C(=O)NN2C(=O)C(Cl)C2c2cc(Br)ccc2O)cc1 (centres undefined) | > 100 µM | 36.5 µM (inactive) | 50.5 µM (inactive) | > 100 µM (inactive) | > 100 µM (inactive) | > 100 µM (inactive) | 64.6 µM (inactive) | > 100 µM (inactive) | > 100 µM (inactive) | – | 78.9 µM (inactive) | > 100 µM (inactive) | – | – | > 100 µM (inactive)
CCOC(C[C@H](O[Si](C)(C)C(C)(C)C)[C@H]1COC(=S)S1)OCC | 55.1 µM | – | > 100 µM (inactive) | 35 µM (inactive) | > 100 µM (inactive) | 32.1 µM (inactive) | 14.5 µM (inactive) | – | – | – | > 100 µM (inactive) | – | 41.7 µM (inactive) | – | 48.1 µM (inactive)
CCCCC(N)CSSCC(N)CCCC (centres undefined) | 26.2 µM | 50.8 µM (inactive) | 26.9 µM (inactive) | 21.4 µM (inactive) | > 100 µM (inactive) | 25.1 µM (inactive) | 23.7 µM (inactive) | 21.1 µM (inactive) | 20.5 µM (inactive) | 17.2 µM (inactive) | 17.9 µM (inactive) | 18.2 µM (inactive) | 17.5 µM (inactive) | – | 22.9 µM (inactive)
CCc1nc(N)nc(C(=O)NCCNC(=O)c2nc(N)nc(CC)c2C)c1C | > 100 µM | > 100 µM (inactive) | > 100 µM (inactive) | > 100 µM (inactive) | > 100 µM (inactive) | > 100 µM (inactive) | > 100 µM (inactive) | > 100 µM (inactive) | > 100 µM (inactive) | > 100 µM (inactive) | > 100 µM (inactive) | > 100 µM (inactive) | – | > 100 µM (inactive) | > 100 µM (inactive)
CCCc1nc(N)nc(C(=O)Nc2cccc(C(F)(F)F)c2)c1CC | > 100 µM | > 100 µM (inactive) | > 100 µM (inactive) | > 100 µM (inactive) | > 100 µM (inactive) | 76.6 µM (inactive) | > 100 µM (inactive) | > 100 µM (inactive) | > 100 µM (inactive) | > 100 µM (inactive) | > 100 µM (inactive) | > 100 µM (inactive) | – | > 100 µM (inactive) | > 100 µM (inactive)
